According to patent US20070014739A1, “Compositions and methods for controlling biofilms and bacterial infections” (priority 2005, published 2007):

Assays:
[1] = system: P. aeruginosa strain PAO1; test: Rotating disk reactor (RDR) biofilm test with and without tobramycin, culturable bacteria; assay type: cell-based, Pseudomonas aeruginosa; details: average of three days; for CFU, Test Compound: no tobramycin; for CFU, Tobramycin and Test Compound: then tobramycin 100 μg/ml 2 h
Procedure: Biofilm formation of P. aeruginosa was evaluated using a standardized biofilm method with a rotating disk reactor (RDR). This method provides a model resembling the formation of biofilms in cystic fibrosis patients. The rotating disk reactor consists of a one-liter glass beaker fitted with a drain spout. The bottom of the vessel contains a magnetically driven rotor with six 1.27 cm diameter coupons constructed from polystyrene. The rotor consists of a star-head magnetic stir bar upon which a disk was affixed to hold the coupons. The vessel with the stir bar was placed on a stir plate and rotated to provide fluid shear. A nutrient solution (AB Trace Medium with 0.3 mM glucose, see Table 3 below for composition) was added through a stopper in the top of the reactor at a flow rate of 5 ml/min. The reactor volume was approximately 180 ml and varied slightly between reactors depending on the placement of the drain spout and the rotational speed of the rotor. At a volume of 180 ml, the residence time of the reactors was 36 minutes. The reactors were operated at room temperature (c.a. 26° C.).
For each test, two RDRs were operated in parallel with one receiving test compound and the other serving as an untreated control. The RDRs were sterilized by autoclave, then filled with sterile medium and inoculated with P. aeruginosa strain PAO1. The reactors were then incubated at room temperature in batch mode (no medium flow) for a period of 24 hours, after which the flow was initiated for a further 24 hour incubation. Test compounds were dissolved in 10 ml ethanol to achieve a concentration of 1.8 mg/ml. After the 48 hours of biofilm development described above, the 10 ml of ethanol containing the test compounds were added to the reactor to achieve a final concentration of approximately 50, 100, or 200 μg/ml. Control reactors received 10 ml of ethanol. The reactors were then incubated for an additional 24 hours in batch (no flow) mode. After this incubation period, the six coupons were removed from each reactor and placed in 12-well polystyrene tissue culture plates with wells containing either 2 ml of a 100 μg/ml tobramycin solution or 2 ml of phosphate-buffered saline (PBS). These plates were incubated at room temperature for two hours. The coupons were then rinsed by three transfers to plates containing 2 ml of fresh PBS. For each two RDR reactors run in parallel, four sets of three coupons were obtained: one set with no test compound treatment and no tobramycin treatment, one set with no test compound treatment and tobramycin treatment, one set treated with a test compound treatment and no tobramycin treatment, and one set treated with a test compound treatment and tobramycin. After rinsing, one coupon of each set of three was stained with a LIVE/DEAD® BacLight™ Bacterial Viability Kit (Molecular Probes, Eugene Oreg.) and imaged using epifluorescent microscopy. The remaining two coupons were placed in 10 ml of PBS and sonicated for five minutes to remove and disperse biofilm cells. The resulting bacterial suspensions were then serially diluted in PBS and plated on tryptic soy agar plates for enumeration of culturable bacteria. The plates were incubated for 24 hours at 37° C. before colony forming units (CFU) were determined.
The results are averages from experiments performed on three separate days for each test compound. The values reported are as loglo CFU.

[2] = system: E. coli clinical strain UT189; test: Inhibition of biofilm formation, crystal violet, 96 well plates; assay type: cell-based; details: Escherichia coli, compared to the controls, read-out: inhibited biofilm formation of the UT189 strain
Procedure: (§1) Biofilm inhibition experiments were conducted using an assay adapted from the reported protocol described in Pratt and Kolter, 1998, Molecular Microbiology, 30: 285-293; Li et al., 2001, J. Bacteriol., 183: 897-908. E. coli clinical strain UT189 was grown in LB in 96 well plates at room temperature for one or two days without shaking. E. coli laboratory strain JM109 was grown in LB plus 0.2% glucose in 96 well plates at room temperature for one day without shaking. To quantify the biofilm mass, the suspension culture was poured out and the biofilm was washed three times with water. The biofilm was stained with 0.1% crystal violet for 20 minutes. The plates were then washed three times with water. OD reading at 540 nm was measured to quantify the biofilm mass at the bottom of the wells. Then 95% ethanol was added to dissolve the dye at the bottom and on the wall and the OD reading at 540 nm was measured to quantify the total biofilm mass. To study the overall effect of the compounds (3.6 mg/mL in 100% ethanol as stock solution), it was added with the inoculation and a time course of biofilm mass was measured. Appropriate amounts of 100% ethanol were added to each sample to eliminate the effect of solvent. Each condition had 3-4 replicates on each plate and was performed over multiple days.

[3] = system: E. coli laboratory strain JM109; test: as above; assay type: cell-based; details: Escherichia coli, JM 109, compared to the controls, read-out: inhibited biofilm formation of the JM109 strain
Procedure: as §1

S. mutans 25175 = test: Biofilm growth inhibition in 1 mL polycarbonate tubes; assay type: cell-based; details: Streptococcus mutans, 40 μg/mL
[4] = Bladder concentrations in rats (pharmacokinetic study); details: rat, in vivo, po, 50 mg/kg
Procedure: Pharmacokinetic studies of asiatic acid and madecassic acid in rats were performed separately. Asiatic acid and madecassic acid were evaluated at 50 mg/kg (oral). Two animals were assigned to the each group. Prior to dosing, a baseline blood sample was taken from each animal. At time zero for asiatic acid and madecassic acid, a single bolus dose in 50% Labrasol (Gattefosse) was given to each animal. Bladders were analyzed at 24 hours. Concentrations of both asiatic acid and madecassic acid in the bladder were approximately 30 μg/g at 24 hours.

Q: For C[C@H]1[C@H](C)CC[C@]2(C(=O)O)CC[C@]3(C)C(=CC[C@@H]4[C@@]5(C)C[C@@H](O)[C@H](O)[C@@](C)(CO)[C@@H]5CC[C@]43C)[C@H]12 [Asiatic acid], which “CFU, Test Compound” value ([1]; test compound 50 μg/ml 24 h) is on record?
A: 7.7 loglo CFU

Q: What about the “CFU, Tobramycin and Test Compound” value ([1]; test compound 50 μg/ml 24 h) of the same compound?
A: 5.3 loglo CFU

Q: What about the “CFU, Test Compound” value ([1]; test compound 100 μg/ml 24 h) of the same compound?
A: 7.7 loglo CFU

Q: What about the “CFU, Tobramycin and Test Compound” value ([1]; test compound 100 μg/ml 24 h) of the same compound?
A: 5.5 loglo CFU

Q: What about the “CFU, Test Compound” value ([1]; test compound 200 μg/ml 24 h) of the same compound?
A: 7.5 loglo CFU

Q: What about the “CFU, Tobramycin and Test Compound” value ([1]; test compound 200 μg/ml 24 h) of the same compound?
A: 5.2 loglo CFU

Q: And the inhibition at 4 µg/mL ([2]; 4 ug/ml)?
A: ~10%

Q: What about the inhibition at 8 µg/mL ([2]; 8 ug/ml) of the same compound?
A: ~15%

Q: What about the inhibition at 16 µg/mL ([2]; 16 ug/ml) of the same compound?
A: ~50%

Q: And the inhibition at 32 µg/mL ([2]; 32 ug/ml)?
A: ~90%

Q: And the inhibition at 5 µg/mL ([3]; 5 ug/ml)?
A: ~70%

Q: What about the inhibition at 10 µg/mL ([3]; 10 ug/ml) of the same compound?
A: ~80%

Q: And the inhibition at 40 µg/mL (S. mutans 25175)?
A: > 75%

Q: And the concentration at 24 h [4]?
A: ~30000 ng/g
